In publication PMC3912631, “Bench to Bed Evidences for Pharmacokinetic and Pharmacodynamic Interactions Involving Oseltamivir and Chinese Medicine” (Evidence-based Complementary and Alternative Medicine : eCAM, 2014):

Key:
[1] = Rat pharmacokinetics of OA and OC in plasma and urine after oral OA alone or with CMF1; format: in vivo, Sprague-Dawley rats; details: in vivo, po, 30 mg/kg
Description: The study was approved by the Animal Ethics Committee of The Chinese University of Hong Kong. Male Sprague-Dawley rats (230–250 g) were utilized and supplied by the Laboratory Animal Service Center at The Chinese University of Hong Kong. The rats were housed under standard conditions of temperature, humidity, and light and randomly divided into six groups with 10–12 rats in each group. […] The dose of 1.95 g/kg CMF1 is calculated based on the human dose recommended by the Chinese physicians and a doubled dose of CMF1 at […] is also used in the current study due to the potential large dosing range for Chinese medicine adopted in the practice. […]
For dosing, OA (4 mg/mL) was freshly prepared by dissolving it in water and orally given to rats by gavage, bid (twice daily) for 4 days (9:00am and 6:00pm for each day), and CMF1 was also freshly suspended in water and then orally given to rats 2 h later of OA dosing (11:00 am and 8:00 pm for each day).
For Groups of 1 to 3, a surgery for jugular vein cannulation was performed 1 h after CMF1 second dosing on day 4. A polyethylene catheter (0.50 mm ID, 1.00 mm OD, Portex Limited, Hythe, Kent, England) was cannulated into the right jugular vein under anesthesia. After surgery, the rat was placed in separated metabolic cage and allowed to recover and fasted overnight with free access to water. In the morning of day 5, blood samples (0.2 mL each) of the rats in the Groups 1–3 were collected via the catheter at 0, 15, 30, 60, 90, 120, 180, 240, 360, and 480 min after dosing of OA. After which, 0.2 mL of normal saline containing 20 units/mL of heparin was then injected into the catheter to flush the catheter. The collected blood samples were immediately placed in heparinized tubes containing dichlorvos (5 μL of 8 mg/mL dichlorvos in normal saline) for inhibition of carboxylesterase, followed by centrifugation to obtain the plasma and stored at −80°C. Urine samples were collected over 8 h postdose and combined with water used for rinsing the metabolic cage, further diluted to 200 mL, and then stored at −80°C until assay.
The rat/human plasma and urine samples were treated and analyzed by an LC/MS/MS system as previously described. Briefly, 200 μL plasma/urine samples was mixed with cephalexin hydrate (internal standard, IS) working solution (final 2 μg/mL) and acidified with 1 mL of 10% perchloric acid in water (if necessary, dilution with blank human urine was required for urine samples). After mixing and centrifugation, the supernatant was loaded in prewashed Oasis MCX cartridge (1 cc, 30 mg, Waters) and the cartridge was rinsed subsequently with 1% formic acid, water, and methanol followed by vacuum dried for 20 min. The analytes were then eluted with 1 mL of 1% ammonia in methanol. The eluting solvent was dried by a vacuum concentrator and the residue was reconstituted with 200 μL of 0.1% formic acid : methanol (1 : 1 v/v) prior to HPLC/MS/MS analysis using an ABI 2000 Q-Trap triple quadrupole mass spectrometer (Applied Biosystems) coupled with PE-200 series micropumps and autosampler (Perkin-Elmer). The chromatographic separation was achieved by using a Nova-Pak CN HP column (75 × 3.9 mm i.d., 4 μm particle size, Waters) and the HPLC solvent system consisted of methanol (A) and 0.1% formic acid in water (B), with 50% A (for plasma samples) or 60% A (for urine samples) at 1 mL/min. The temperatures of autosampler and the analytical column were set at 4°C and ambient, respectively, and the sample injection volume was 20 μL. Prior to the mass spectrometric system, 60% of the LC eluent was split off and only 40% of the eluent was introduced into the ESI source.
The plasma/urine OA and OC concentrations versus time profiles were analyzed using WinNonlin software standard edition version 2.1 (Pharsight Corporation). […] In human study, trough concentration (C trough) was defined as the minimum concentration obtained and was obtained at 12 h post-dose. […]

[2] = Human crossover pharmacokinetic interaction study of WM (Tamiflu) alone or with CMF1; format: in vivo, human (Chinese male healthy volunteers); details: for AUC(0-t): AUC0–12 h; for Cmax: C max
Description: Normal healthy Chinese male subjects aged 20–45 years were recruited in this study. […] The study was conducted using a single-center, randomized, open-labeled, multiple dose (5 days), two-treatment, two-period, two-sequence crossover design. […] Each subject underwent two treatment sessions (periods I and II), and each session consists of 5-day treatment (twice daily for day 1 to day 4, morning dose for day 5). The two treatment sessions were separated by a washout period of 2 weeks. 250 mL water was used for WM (Tamiflu capsule, 75 mg per dose) administration. […] Drinking water was not allowed from 1 h predose to 1 h postdose except that needed for drug dosing. […] All blood and urine collection was taken on day 5 of each treatment session. […] Blood samples were collected from a catheter, which was placed in the forearm vein before dosing. At the specified time, 5 mL of blood was drawn (except for 0 time and at 2 h which was 10 mL each for additional antiviral activity determination) and stored in vacuette lithium heparin tubes (Greiner Bio-One). […] Plasma samples were collected after centrifugation and then stored at −80°C until assay. Urine was also collected (and the volume was recorded) at pre-dose, 0–4, 4–8, and 8–12 h intervals. […] After mixing and centrifugation, the supernatant was loaded in prewashed Oasis MCX cartridge (1 cc, 30 mg, Waters) and the cartridge was rinsed subsequently with 1% formic acid, water, and methanol followed by vacuum dried for 20 min. The analytes were then eluted with 1 mL of 1% ammonia in methanol. The eluting solvent was dried by a vacuum concentrator and the residue was reconstituted with 200 μL of 0.1% formic acid : methanol (1 : 1 v/v) prior to HPLC/MS/MS analysis using an ABI 2000 Q-Trap triple quadrupole mass spectrometer (Applied Biosystems) coupled with PE-200 series micropumps and autosampler (Perkin-Elmer). […] In human study, trough concentration (C trough) was defined as the minimum concentration obtained and was obtained at 12 h post-dose. […] In human studies, the comparison of WM + CMF1 to WM alone treatments was evaluated using a 90% confidence intervals (90% CI) approach (USFDA guideline, Drug Interactions Studies, September 2006). […] The statistical model included terms describing the effects attributable to sequence, subject (nested in sequence), period, and treatment (formulation). […] Difference in the median T max between both treatments was evaluated using Wilcoxon signed-rank test. For comparison of the human antiviral activities, one-way analysis of variance in conjunction with post hoc Turkey's range test was performed.

[3] = male, human, in vivo, geometric mean

SMILES: CCOC(=O)C1=C[C@@H](OC(CC)CC)[C@H](NC(C)=O)[C@@H](N)C1 [OA, Oseltamivir]
- AUC0–8 h [1]: 199.85 ± 56.88 μg∗min/mL
- AUC0–inf [1]: 209.14 ± 60.23 μg∗min/mL
- V d, λz/F [1]: 23.39 ± 8.17 (L/k)g
- Cmax ([1]; male, Sprague-Dawley, C max): 1160 ± 300 ng/mL
- CL renal ([1]; male, Sprague-Dawley, CL renal): 6.1 ± 1.32 mL/min
- CL/F ([1]; male, Sprague-Dawley, CL/F): 158 ± 59.6 mL/min/kg
- Tmax ([1]; male, Sprague-Dawley, T max): 0.55 h
- half-life ([1]; male, Sprague-Dawley, t 1/2, λz): 1.72 ± 0.146 h
- C max ([2]; human, day 5, WM + CMF1, n = 14, arithmetic mean ± SD): 51.3 ± 17.4 ng/mL
- tolerability ([2]; in vivo): well tolerated
- 12 h Cum. amt. in urine ([2]; male, human, in vivo): 2883 ± 985 µg
- 12 h Cum. amt. in urine, geometric mean ([2]; male, human, in vivo): 2745.53 µg
- C max for WM + CMF1 treatment lower than that from WM alone ([2]; male, human, in vivo): 21.81%
- C max when OA was co-administered with CMF1, relative to WM alone ([2]; male, human, in vivo): ~ 78%
- time to reach peak maximum in plasma ([2]; male, human, in vivo): 0.5 to 1 h
- AUC(0-t) ([2]; male, human, in vivo): 134 ± 41.1 ng·h/mL
- AUC(0-t) [2, 3]: 130 ng·h/mL
- Cmax ([2]; male, human, in vivo): 67.9 ± 27.1 ng/mL
- Cmax [2, 3]: 62.4 ng/mL
- CL renal ([2]; male, human, in vivo, Renal clearance): 368 mL/min
- half-life ([2]; male, human, in vivo, T 1/2 (terminal half-life)): 1.98 ± 0.4 h
- Tmax ([2]; male, human, in vivo, T max): 0.61 ± 0.21 h
- CL renal ([2]; male, human, in vivo, renal clearance): ~367 mL/min
